Test results reported in ChEMBL document CHEMBL1201862, “PubChem BioAssay data set” (2004).
Values joined by “and” are separate entries in the source; they are usually repeats but may differ in a detail not shown here. Identical values can stand only once.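 How tested: cells in 96-well plates exposed to compound for 48 hours at five concentrations. GI50 = concentration required for 50% inhibition of growth.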 Active and inactive are the calls of the source. Cut-off read from the data, not from the text of the source: active = GI50 up to about 1.1 µM and inactive = higher.

Tests used:
Experiment in all cases: growth of human tumour cells (NCI), 48 h
OVCAR-3 = system: OVCAR-3
NCI-H460 = system: NCI-H460
LXFL 529 = system: LXFL 529
EKVX = system: EKVX
ACHN = system: ACHN
CAKI-1 = system: CAKI-1
SK-MEL-5 = system: SK-MEL-5
SK-MEL-28 = system: SK-MEL-28
TK-10 = system: TK-10
M19-MEL = system: M19-MEL
NCI-H522 = system: NCI-H522
SF-268 = system: SF-268
KM-20L2 = system: KM-20L2
DLD-1 = system: DLD-1
786-0 = system: 786-0
OVCAR-5 = system: OVCAR-5
UACC-62 = system: UACC-62
IGROV-1 = system: IGROV-1
NCI-H23 = system: NCI-H23
HCT-116 = system: HCT-116
HL-60 = system: HL-60
DMS-114 = system: DMS-114
HT-29 = system: HT-29
HCC 2998 = system: HCC 2998
DMS-273 = system: DMS-273
UACC-257 = system: UACC-257
SN12C = system: SN12C
OVCAR-8 = system: OVCAR-8
A549 = system: A549
SF-295 = system: SF-295
SNB-78 = system: SNB-78
HOP-18 = system: HOP-18
OVCAR-4 = system: OVCAR-4
KM12 = system: KM12
RXF 631 = system: RXF 631
LOX IMVI = system: LOX IMVI
NCI-H226 = system: NCI-H226
SK-OV-3 = system: SK-OV-3
SNB-19 = system: SNB-19
SW-620 = system: SW-620
SNB-75 = system: SNB-75
Malme-3M = system: Malme-3M
COLO 205 = system: COLO 205
K562 = system: K562
A498 = system: A498
M14 = system: M14
RXF 393 = system: RXF 393
XF498 = system: XF498

Measured: GI50

COC1OC(COC(C)=O)C(OC(C)=O)C(OC(C)=O)C1NC(=O)N(CCCl)N=O (stereo not drawn)
inactive: OVCAR-3 > 100 µM | NCI-H460 63 µM and 44.6 µM | LXFL 529 > 100 µM | EKVX > 100 µM | ACHN > 100 µM | CAKI-1 > 100 µM | SK-MEL-5 > 100 µM | SK-MEL-28 > 100 µM | TK-10 > 100 µM | M19-MEL > 100 µM | NCI-H522 24.1 µM and 45.9 µM | SF-268 26.8 µM and 20.3 µM | KM-20L2 > 100 µM | DLD-1 > 100 µM | 786-0 54.6 µM and 63.4 µM | OVCAR-5 > 100 µM | UACC-62 26.2 µM and 25.6 µM | IGROV-1 > 100 µM | NCI-H23 > 100 µM | HCT-116 > 100 µM | HL-60 30.8 µM and 16.1 µM | DMS-114 > 100 µM | HT-29 > 100 µM | HCC 2998 > 100 µM | DMS-273 > 100 µM | UACC-257 > 100 µM | SN12C > 100 µM | OVCAR-8 > 100 µM | A549 > 100 µM and 82.4 µM | SF-295 39.1 µM and 24.2 µM | SNB-78 > 100 µM | HOP-18 > 100 µM | OVCAR-4 > 100 µM | KM12 > 100 µM | RXF 631 > 100 µM | LOX IMVI 61.4 µM and 47.3 µM | NCI-H226 > 100 µM | SK-OV-3 > 100 µM | SNB-19 > 100 µM and 69.7 µM | SW-620 > 100 µM | SNB-75 47.1 µM and 34.4 µM | Malme-3M > 100 µM | COLO 205 > 100 µM | K562 65 µM | A498 > 100 µM | M14 > 100 µM | RXF 393 > 100 µM | XF498 > 100 µM
